{
  "source": "patent US11737999B2",
  "about": "“Amino acid compositions and methods for the treatment of post-acute sequelae of COVID-19” (AXCELLA HEALTH INC., priority 2021, dated 2023)",
  "key": {"MCP1/CCL2": {"system": "MCP1/CCL2", "test": "MCP1/CCL2 secretion by ELISA in primary human hepatocytes with FFA + TNFα", "assay_type": "cell-based"}, "MCP-1": {"system": "MCP-1", "test": "MCP-1 chemokine secretion in primary human hepatic stellate cells stimulated with TNFα", "assay_type": "cell-based"}, "IL-6 [1]": {"system": "IL-6", "test": "IL-6 cytokine secretion in primary human hepatic stellate cells stimulated with TNFα", "assay_type": "cell-based", "details": "for Fold Change IL-6 Secretion Normalized Per Cell: Isoleucine 66 μM (plasma level, reference)"}, "Col1a1": {"system": "Col1a1", "test": "Col1a1 gene expression (RT-qPCR) in primary human hepatic stellate cells stimulated with TGFβ1", "assay_type": "cell-based", "details": "for Col1a1 Fold Expression Relative to Control, Mean: single amino acid"}, "Procollagen Iα1": {"system": "Procollagen Iα1", "test": "Procollagen Iα1 secretion (ELISA) in primary human hepatic stellate cells stimulated with TGFβ1", "assay_type": "cell-based", "details": "for Procollagen lα1 Secretion (Fold Change of 1X), Mean: first donor; for Procollagen lα1 Secretion (Fold Change of 1X), Mean / Procollagen Iα1 Secretion, Mean: single amino acid"}, "IL-6 [2]": {"system": "IL-6", "test": "LPS-induced IL-6 secretion in primary human monocyte-derived macrophages", "details": "for IL-6 Measurements, Mean: LPS, baseline subtracted values"}, "TNF-α": {"system": "TNF-α", "test": "LPS-induced TNF-α secretion in primary human monocyte-derived macrophages", "details": "for TNF-α Measurements Mean (baseline subtracted): 0.15 ng/mL LPS"}, "[3]": {"details": "hepatic stellate cells, three donors"}, "[4]": {"details": "Donor 1, Conc. 66 μM (baseline)"}},
  "data": [
    {"compound": "CC[C@H](C)[C@H](N)C(=O)O", "note": "[Isoleucine, L-Isoleucine]", "values": [
      {"measurement": "MCP1 expression relative to Control, Mean", "setting": "MCP1/CCL2; Donor 1, Conc. 66 μM", "result": "−1.2E−15"},
      {"measurement": "MCP1 expression relative to Control, Mean", "setting": "MCP1/CCL2; Donor 1, Conc. 1328 μM", "result": "−0.3073"},
      {"measurement": "MCP1 expression relative to Control, Mean", "setting": "MCP1/CCL2; Donor 1, Conc. 3320 μM", "result": "−2.417"},
      {"measurement": "MCP1 expression relative to Control, Mean", "setting": "MCP1/CCL2; Donor 1, Conc. 6639 μM", "result": "−0.205"},
      {"measurement": "MCP1 expression relative to Control, Mean", "setting": "MCP1/CCL2; Donor 2, Conc. 66 μM", "result": 0},
      {"measurement": "MCP1 expression relative to Control, Mean", "setting": "MCP1/CCL2; Donor 2, Conc. 1328 μM", "result": 26.62},
      {"measurement": "MCP1 expression relative to Control, Mean", "setting": "MCP1/CCL2; Donor 2, Conc. 3320 μM", "result": "−5.645"},
      {"measurement": "MCP1 expression relative to Control, Mean", "setting": "MCP1/CCL2; Donor 2, Conc. 6639 μM", "result": 18.62},
      {"measurement": "MCP1/CCL2 secretion (summary in words)", "setting": "MCP1/CCL2; primary human hepatocytes, two healthy donors", "result": "did not have an effect on MCP1/CCL2 secretion"},
      {"measurement": "Fold Change MCP1 Secretion Normalized Per Cell, Mean", "setting": "MCP-1; donor 3, Conc. 66 μM", "result": 1.0000, "unit": "Fold Change"},
      {"measurement": "Fold Change MCP1 Secretion Normalized Per Cell", "setting": "MCP-1; donor 4, Isoleucine 66 μM (plasma level, reference)", "result": 1.0000, "unit": "fold change"},
      {"measurement": "Fold Change IL-6 Secretion Normalized Per Cell", "setting": "IL-6 [1]; donor 1", "result": 1.0000, "unit": "fold change"},
      {"measurement": "Fold Change IL-6 Secretion Normalized Per Cell", "setting": "IL-6 [1]; donor 2", "result": 1.0000, "unit": "fold change"},
      {"measurement": "IL-6 secretion (summary in words)", "setting": "IL-6 [1]; hepatic stellate cells, two donors", "result": "no significant effect on IL-6 secretion"},
      {"measurement": "Col1a1 Fold Expression Relative to Control, Mean", "setting": "Col1a1; first donor, 3320 μM", "result": 1.10, "unit": "fold"},
      {"measurement": "Col1a1 gene expression (summary in words)", "setting": "Col1a1; [3]", "result": "did not significantly change Col1a1 gene expression in any donor"},
      {"measurement": "Col1a1 Fold Expression Relative to Control, Mean", "setting": "Col1a1; second donor (Table 27), 66 μM (baseline)", "result": 1.00, "unit": "fold"},
      {"measurement": "Col1a1 Fold Expression Relative to Control, Mean", "setting": "Col1a1; second donor (Table 27), 1328 μM", "result": 0.97, "unit": "fold"},
      {"measurement": "Col1a1 Fold Expression Relative to Control, Mean", "setting": "Col1a1; second donor (Table 27), 3320 μM", "result": 0.99, "unit": "fold"},
      {"measurement": "Col1a1 Fold Expression Relative to Control, Mean", "setting": "Col1a1; second donor (Table 27), 6639 μM", "result": 1.03, "unit": "fold"},
      {"measurement": "Col1a1 Fold Expression Relative to Control, Mean", "setting": "Col1a1; second donor (Table 29), 1328 μM", "result": 0.94, "unit": "fold"},
      {"measurement": "Col1a1 Fold Expression Relative to Control, Mean", "setting": "Col1a1; second donor (Table 29), 3320 μM", "result": 0.94, "unit": "fold"},
      {"measurement": "Col1a1 Fold Expression Relative to Control, Mean", "setting": "Col1a1; second donor (Table 29), 6639 μM", "result": 1.03, "unit": "fold"},
      {"measurement": "Procollagen lα1 Secretion (Fold Change of 1X), Mean", "setting": "Procollagen Iα1; 1328 μM", "result": 0.9229, "unit": "fold"},
      {"measurement": "Procollagen lα1 Secretion (Fold Change of 1X), Mean", "setting": "Procollagen Iα1; 3320 μM", "result": 1.1366, "unit": "fold"},
      {"measurement": "Procollagen lα1 Secretion (Fold Change of 1X), Mean", "setting": "Procollagen Iα1; 6639 μM", "result": 1.2144, "unit": "fold"},
      {"measurement": "procollagen Iα1 secretion (summary in words)", "setting": "Procollagen Iα1; [3]", "result": "significantly increased procollagen Iα1 secretion in two of three donors"},
      {"measurement": "Procollagen Iα1 Secretion, Mean", "setting": "Procollagen Iα1; second donor, Conc. 66 μM (baseline)", "result": "1.0000 Fold Change of 1×"},
      {"measurement": "Procollagen Iα1 Secretion, Mean", "setting": "Procollagen Iα1; second donor, Conc. 1328 μM", "result": "1.4811 Fold Change of 1×"},
      {"measurement": "Procollagen Iα1 Secretion, Mean", "setting": "Procollagen Iα1; second donor, Conc. 3320 μM", "result": "1.4940 Fold Change of 1×"},
      {"measurement": "Procollagen Iα1 Secretion, Mean", "setting": "Procollagen Iα1; second donor, Conc. 6639 μM", "result": "1.5423 Fold Change of 1×"},
      {"measurement": "Procollagen Iα1 Secretion, Mean", "setting": "Procollagen Iα1; third donor, Conc. 66 μM (baseline)", "result": "1.0000 Fold Change of 1×"},
      {"measurement": "Procollagen Iα1 Secretion, Mean", "setting": "Procollagen Iα1; third donor, Conc. 1328 μM", "result": "1.2687 Fold Change of 1×"},
      {"measurement": "Procollagen Iα1 Secretion, Mean", "setting": "Procollagen Iα1; third donor, Conc. 3320 μM", "result": "1.2703 Fold Change of 1×"},
      {"measurement": "Procollagen Iα1 Secretion, Mean", "setting": "Procollagen Iα1; third donor, Conc. 6639 μM", "result": "1.4465 Fold Change of 1×"},
      {"measurement": "IL-6 Measurements, Mean", "setting": "IL-6 [2]; [4]", "result": 0},
      {"measurement": "IL-6 Measurements, Mean", "setting": "IL-6 [2]; Donor 2, Conc. 1328 μM", "result": "−2.318"},
      {"measurement": "IL-6 Measurements, Mean", "setting": "IL-6 [2]; Donor 2, Conc. 3320 μM", "result": 2.305},
      {"measurement": "IL-6 Measurements, Mean", "setting": "IL-6 [2]; Donor 2, Conc. 6639 μM", "result": "−1.774"},
      {"measurement": "IL-6 Measurements Mean (baseline subtracted)", "setting": "IL-6 [2]; Donor 3, Conc. 3320 μM, 0.15 ng/mL LPS", "result": 0},
      {"measurement": "TNF-α Measurements Mean (baseline subtracted)", "setting": "TNF-α; [4]", "result": 0},
      {"measurement": "TNF-α Measurements Mean (baseline subtracted)", "setting": "TNF-α; Donor 1, Conc. 1328 μM", "result": "−42.68"},
      {"measurement": "TNF-α Measurements Mean (baseline subtracted)", "setting": "TNF-α; Donor 1, Conc. 3320 μM", "result": "−96.3"},
      {"measurement": "TNF-α Measurements Mean (baseline subtracted)", "setting": "TNF-α; Donor 1, Conc. 6639 μM", "result": "−40.95"},
      {"measurement": "LPS-induced TNF-α secretion (summary in words)", "setting": "TNF-α; Donor 2", "result": "increased TNF-α secretion"},
      {"measurement": "TNF-α Measurements Mean (baseline subtracted)", "setting": "TNF-α; Donor 2, Conc. 66 μM (baseline)", "result": "4.74E−15"},
      {"measurement": "TNF-α Measurements Mean (baseline subtracted)", "setting": "TNF-α; Donor 2, Conc. 1328 μM", "result": 2.919},
      {"measurement": "TNF-α Measurements Mean (baseline subtracted)", "setting": "TNF-α; Donor 2, Conc. 3320 μM", "result": 10.26},
      {"measurement": "TNF-α Measurements Mean (baseline subtracted)", "setting": "TNF-α; Donor 2, Conc. 6639 μM", "result": 19.26},
      {"measurement": "TNF-α Measurements Mean (baseline subtracted)", "setting": "TNF-α; Donor 3, Conc. 66 μM (baseline)", "result": "−2.4E−15"},
      {"measurement": "TNF-α Measurements Mean (baseline subtracted)", "setting": "TNF-α; Donor 3, Conc. 1328 μM", "result": "−6.23"},
      {"measurement": "TNF-α Measurements Mean (baseline subtracted)", "setting": "TNF-α; Donor 3, Conc. 3320 μM", "result": 3.309},
      {"measurement": "TNF-α Measurements Mean (baseline subtracted)", "setting": "TNF-α; Donor 3, Conc. 6639 μM", "result": "−1.66"}
    ]}
  ]
}
